Reference: patent US7592308B2, “F3W variants of the lantibiotic mersacidin and its use” (priority 2004, dated 2009)
Square brackets hold non-standard residues; d marks the D form. Ends that are not written are not given here. Dha = C=C(N)C(=O)O

Assays:
[1] = system: E. faecium 19579; test: MIC, two-fold serial dilution in broth; assay type: cell-based, Enterococcus faecium; settings: Table 8A; MHB + 50 μg/ml calcium; duplicate
Procedure: (§1) A selection of the variants produced in Example 1 above were tested further for activity against a range of bacteria. Minimum inhibitory concentrations (MICs) for all organisms with the exception of Streptococcus pneumoniae were determined by two-fold serial antibiotic dilutions in Mueller-Hinton broth (MHB) supplemented with 50 μg/ml calcium as calcium chloride dihydrate. Minimum inhibitory concentrations (MICs) for S. pneumoniae were determined by two-fold serial antibiotic dilutions in Brain Heart Infusion (BHI) broth supplemented with 50 μg/ml calcium as calcium chloride dihydrate. Antimicrobial agent stock solutions were prepared and stored according to NCCLS standard M7-A6.
(§2) Actively growing broth cultures were diluted to contain […] by adjusting to an absorbance of 0.2-0.3 at 600 nm, equivalent to the McFarland 0.5 standard. They were then diluted a further 1:100 in broth. The assays were performed in duplicate in sterile 96-well microtitre plates in a total volume of 200 μl (160 μl broth, 20 μl antibiotic, 20 μl inoculum) in a concentration range from 64 μg/ml to 0.06 μg/ml. The 12th well of the microtitre plate contained no antimicrobial agent. Vancomycin was used as a reference antibiotic for quality control. Plates were incubated aerobically, shaking, for 18-20 hours at 37° C. with the MIC defined as the lowest concentration of drug that produced no visible growth.

[2] = system: E. faecium BM4147; test: MIC test, further organisms; assay type: cell-based, Enterococcus faecium; settings: Table 10; duplicate
Procedure: (§3) MIC tests were performed with some of the variants of Example 2 on a range of other organisms. The results are shown in Tables 9 and 10 (figures in μg/ml): […]

[3] = system: E. faecalis 29212; test: MIC, two-fold serial dilution in broth; assay type: cell-based, Enterococcus faecalis; settings: Table 8A; MHB + 50 μg/ml calcium; duplicate
Procedure: as §1, §2

[4] = system: S. aureus COL; assay type: cell-based, Staphylococcus aureus; settings: Table 10; duplicate
Procedure: as §3

[5] = system: S. aureus SH1000; assay type: cell-based, Staphylococcus aureus; settings: Table 8A; MHB + 50 μg/ml calcium; duplicate
Procedure: as §1, §2

[6] = system: S. pneumoniae R6; assay type: cell-based, Streptococcus pneumoniae; settings: Table 8B; BHI broth + 50 μg/ml calcium; duplicate
Procedure: as §1, §2

[7] = system: S. aureus LT 1012-13; test: MIC test, further organisms; assay type: cell-based, Staphylococcus aureus; settings: Table 10; duplicate
Procedure: as §3

[8] = system: S. aureus Mu50; test: MIC test, further organisms; assay type: cell-based, Staphylococcus aureus; settings: Table 10; duplicate
Procedure: as §3

[9] = system: Micrococcus luteus ATCC4698; test: Bioassay of culture supernatant against M. luteus; assay type: cell-based; settings: aqueous phase of chloroform-extracted culture supernatant
Procedure: The cultures were assayed for production of mersacidin by HPLC and bioassay against Micrococcus luteus ATCC4698. Samples of production cultures (1 ml) were centrifuged at 14000 rpm for 10 minutes. Supernatants were decanted and used undiluted for HPLC and bioassay.
For bioassays, M.luteus was inoculated from frozen stock into 10 ml half-strength Muller-Hinton broth in a 50 ml conical flask, and incubated at 30C with shaking at 250 rpm for approximately 7 hours, 0.3 ml of this culture was used to inoculate 300 ml of Muller-Hinton agar which was poured into a bioassay plate. Wells (6 mm diameter) were made with a cork-borer. Samples of 50 μl of supernatants were added to these wells. The concentration of mersacidin in the samples was calculated by comparing the diameter of inhibition zones of samples against a range of concentrations of a pure mersacidin standard.
Chloramphenicol resistant colonies were selected and grown in 3 ml Tryptic Soy Broth at 30C for 24 hours, 250 rpm and 0.3 ml of these cultures were used to inoculate 7 ml of 2×BPM+300 mM glucose+chloramphenicol (20 mg/l). After five days of incubation at 30C and 250 rpm, a 1 ml sample was collected and centrifuged at 13000 rpm for 10 min, the supernatant was removed, extracted with 1 volume of chloroform and the aqueous phase used for bioassay and HPLC-MS analysis (see accompanying disclosure for method). […] These masses are consistent with production of the expected mature lantibiotic products.
The ligation mixture was used to transform E. coli DH10B (Invitrogen). Ampicillin resistant colonies were selected, grown in LB+ampicillin (100 mg/l) and plasmids were isolated and characterised by sequence analysis. Plasmid encoding the expected mutant (pNB2024) was used to transform E. coli ET12567 and the plasmid obtained from this strains was used to transform Bacillus sp. HIL Y-85,54728 E17A. Chloramphenicol resistant colonies were selected and grown in 3 ml Tryptic Soy Broth at 30C for 24 hours, 250 rpm and 0.3 ml of these cultures were used to inoculate 7 ml of 2×BPM+300 mM glucose+chloramphenicol (20 mg/l). […]

[10] = system: M. luteus 4698; assay type: cell-based, Micrococcus luteus; settings: Table 8B; MHB + 50 μg/ml calcium; duplicate
Procedure: as §1, §2

[11] = system: E. faecium 7131121; test: MIC, two-fold serial dilution in broth; assay type: cell-based, Enterococcus faecium; settings: Table 8A; MHB + 50 μg/ml calcium; duplicate
Procedure: as §1, §2

[12] = system: S. aureus R33; assay type: cell-based, Staphylococcus aureus; settings: Table 8A; MHB + 50 μg/ml calcium; duplicate
Procedure: as §1, §2

[13] = system: S. epidermidis 11047; assay type: cell-based, Staphylococcus epidermidis; settings: Table 8B; MHB + 50 μg/ml calcium; duplicate
Procedure: as §1, §2

Substance | MIC E. faecium 19579 [1] | MIC E. faecium BM4147 [2] | MIC E. faecalis 29212 [3] | MIC S. aureus COL [4] | MIC S. aureus SH1000 [5] | MIC S. pneumoniae R6 [6] | MIC S. aureus LT 1012-13 [7] | MIC S. aureus Mu50 [8] | antibiotic activity in bioassay against M. luteus [9] | MIC M. luteus 4698 [10] | MIC E. faecium 7131121 [11] | MIC S. aureus R33 [12] | MIC S. epidermidis 11047 [13]
G8N: mersacidin variant (CTFTLPGNGGVCTLT[Dha]ECIC; thioether (positions not given here); not fully specified; UniProt P43683 49-68, looked up, variant G8N) | >64, >64 μg/ml | >64, >64 μg/ml | >64, >64 μg/ml | >64, >64 μg/ml | >64, >64 μg/ml | >64, >64 μg/ml | >64, >64 μg/ml | >64, >64 μg/ml | – | – | – | – | –
G8V: mersacidin variant, inactive in bioassay (CTFTLPGVGGVCTLT[Dha]ECIC; thioether (positions not given here); not fully specified; UniProt P43683 49-68, looked up, variant G8V) | – | – | – | – | – | – | – | – | inactive | – | – | – | –
G9H: mersacidin variant (CTFTLPGGHGVCTLT[Dha]ECIC; thioether (positions not given here); not fully specified; UniProt P43683 49-68, looked up, variant G9H) | – | >64, >64 μg/ml | >64, >64 μg/ml | >64, >64 μg/ml | – | – | >64, >64 μg/ml | >64, >64 μg/ml | – | <4, <4 μg/ml | – | – | –
G9R: mersacidin variant (CTFTLPGGRGVCTLT[Dha]ECIC; thioether (positions not given here); not fully specified; UniProt P43683 49-68, looked up, variant G9R) | >64, >64 μg/ml | – | >64, >64 μg/ml | – | >64, >64 μg/ml | >64, >64 μg/ml | – | – | – | – | >64, >64 μg/ml | >64, >64 μg/ml | >64, >64 μg/ml
G9S: mersacidin variant (CTFTLPGGSGVCTLT[Dha]ECIC; thioether (positions not given here); not fully specified; UniProt P43683 49-68, looked up, variant G9S) | >64, >64 μg/ml | – | >64, >64 μg/ml | – | >64, >64 μg/ml | >64, >64 μg/ml | – | – | – | – | >64, >64 μg/ml | >64, >64 μg/ml | >64, >64 μg/ml
